In ChEMBL document CHEMBL1201862, “PubChem BioAssay data set” (2004):
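Grown in 96-well plates, cells were treated for 48 hours with each compound at five concentrations. Insufficient inhibition: endpoint recorded as highest concentration tested. GI50 is the concentration that inhibits growth by half.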 Active and inactive are the calls of the source. No stated cut-off is given here; in the data, active = GI50 up to about 1.1 µM and inactive = higher.

Experiments:
Test in all cases: growth of human tumour cells (NCI), 48 h
[1] = tested on: 786-0
[2] = tested on: DMS-114
[3] = tested on: DU-145
[4] = tested on: EKVX
[5] = tested on: HCT-116
[6] = tested on: HCT-15
[7] = tested on: HT-29
[8] = tested on: KM12
[9] = tested on: MDA-MB-231
[10] = tested on: MOLT-4
[11] = tested on: NCI/ADR-RES
[12] = tested on: OVCAR-4
[13] = tested on: SF-268
[14] = tested on: SF-295
[15] = tested on: SF-539
[16] = tested on: SK-MEL-5
[17] = tested on: SK-OV-3
[18] = tested on: SR
[19] = tested on: TK-10
[20] = tested on: UACC-62

| Compound | GI50 [1] | GI50 [2] | GI50 [3] | GI50 [4] | GI50 [5] | GI50 [6] [µM] | GI50 [7] | GI50 [8] | GI50 [9] | GI50 [10] | GI50 [11] | GI50 [12] | GI50 [13] | GI50 [14] | GI50 [15] | GI50 [16] | GI50 [17] | GI50 [18] | GI50 [19] | GI50 [20] |
| --- | --- | --- | --- | --- | --- | --- | --- | --- | --- | --- | --- | --- | --- | --- | --- | --- | --- | --- | --- | --- |
| O=C1C(CO)=C(CO)C(=O)c2c(O)ccc(O)c21 | 0.361 µM (active) | 0.24 µM (active) | 1.85 µM (inactive) | 2.25 µM (inactive) | 0.218 µM (active) | 0.214 | 0.105 µM (active) | 1.61 µM (inactive) | 1.35 µM (inactive) | 0.0497 µM (active) | 1.04 µM (active) | 0.234 µM (active) | 0.649 µM (active) | 1.69 µM (inactive) | 0.705 µM (active) | 0.394 µM (active) | 7.23 µM (inactive) | 0.0902 µM (active) | 0.352 µM (active) | 0.782 µM (active) |
| Cc1ccc(C)c(N2C(=O)C(=O)C(c3nc4ccccc4o3)/C(=N/N)C2=O)c1 (stereo unspecified) | > 100 µM (inactive) | > 100 µM (inactive) |  | > 100 µM (inactive) | > 100 µM (inactive) | > 100 | > 100 µM (inactive) | > 100 µM (inactive) |  | > 100 µM (inactive) |  | > 100 µM (inactive) | > 100 µM (inactive) | > 100 µM (inactive) | > 100 µM (inactive) | > 100 µM (inactive) | > 100 µM (inactive) | > 100 µM (inactive) | > 100 µM (inactive) | > 100 µM (inactive) |
| COc1cc(C(=O)NC2CCc3cc(OC)c(OC)c(OC)c3-c3ccc(OC)c(=O)cc32)cc(OC)c1OC (stereo unspecified) | 0.288 µM (active) | 0.0233 µM (active) | 0.24 µM (active) | 12 µM (inactive) | 0.043 µM (active) | 3.53 | 0.0467 µM (active) | 0.036 µM (active) | 0.0306 µM (active) | 0.0451 µM (active) | 18.2 µM (inactive) | 15.8 µM (inactive) | 0.0828 µM (active) | 0.153 µM (active) | 0.0228 µM (active) | 0.0553 µM (active) | 0.231 µM (active) | 0.0249 µM (active) | 1.49 µM (inactive) | 0.0711 µM (active) |
| Cc1c(C(=O)NCCO)[n+]([O-])c2cc(Cl)ccc2[n+]1[O-] | > 100 µM (inactive) | > 100 µM (inactive) |  | > 100 µM (inactive) | > 100 µM (inactive) | > 100 | > 100 µM (inactive) | > 100 µM (inactive) |  | > 100 µM (inactive) |  | > 100 µM (inactive) | > 100 µM (inactive) | > 100 µM (inactive) | > 100 µM (inactive) | > 100 µM (inactive) | 86.9 µM (inactive) | > 100 µM (inactive) | > 100 µM (inactive) | > 100 µM (inactive) |
| CC1NOC(=O)C1/N=N/c1cccc(Cl)c1 (stereo unspecified) | 30.2 µM (inactive) | 22.4 µM (inactive) |  | 37.5 µM (inactive) | 31.7 µM (inactive) | 17.7 | 27.4 µM (inactive) | 40.7 µM (inactive) |  | 24.5 µM (inactive) |  | 32.9 µM (inactive) | 23.1 µM (inactive) | 34 µM (inactive) | 34.3 µM (inactive) | 19.9 µM (inactive) | 28.8 µM (inactive) | 21.2 µM (inactive) | 42.8 µM (inactive) | 34.6 µM (inactive) |
| O=C(c1ccc(Cl)cc1)c1ccc(OCC(=O)N2CCN(c3ccccc3)CC2)cc1 | > 100 µM (inactive) | 33.2 µM (inactive) |  | > 100 µM (inactive) | > 100 µM (inactive) | > 100 | > 100 µM (inactive) | > 100 µM (inactive) |  | 62.7 µM (inactive) |  | > 100 µM (inactive) | > 100 µM (inactive) | > 100 µM (inactive) | > 100 µM (inactive) | 41.6 µM (inactive) | > 100 µM (inactive) | 84.5 µM (inactive) | > 100 µM (inactive) | > 100 µM (inactive) |
| NS(=O)(=O)c1cc2c(cc1Cl)NC(C(=O)c1cc(=O)c3ccc(O)cc3o1)=NS2(=O)=O | > 100 µM (inactive) | > 100 µM (inactive) |  | > 100 µM (inactive) | > 100 µM (inactive) | > 100 | > 100 µM (inactive) | > 100 µM (inactive) |  | > 100 µM (inactive) |  | > 100 µM (inactive) | > 100 µM (inactive) | > 100 µM (inactive) | > 100 µM (inactive) | > 100 µM (inactive) | > 100 µM (inactive) | > 100 µM (inactive) | > 100 µM (inactive) | > 100 µM (inactive) |
| CC(Oc1cc2oc(=O)cc(-c3ccccc3)c2cc1Cl)C(=O)O (stereo unspecified) | > 100 µM (inactive) | > 100 µM (inactive) |  | > 100 µM (inactive) | > 100 µM (inactive) |  | > 100 µM (inactive) | > 100 µM (inactive) |  | > 100 µM (inactive) |  | > 100 µM (inactive) | > 100 µM (inactive) | > 100 µM (inactive) | > 100 µM (inactive) | > 100 µM (inactive) | > 100 µM (inactive) | > 100 µM (inactive) | > 100 µM (inactive) | > 100 µM (inactive) |
| CN(C)c1ccc(/C=C2\C[N+](C)(C)C/C(=C\c3ccc(N(C)C)cc3)C2=O)cc1 | 30.7 µM (inactive) | 7.53 µM (inactive) | 31.3 µM (inactive) | 38 µM (inactive) | 8.93 µM (inactive) | > 100 | 9.18 µM (inactive) | 6.14 µM (inactive) | 17.9 µM (inactive) | 13.6 µM (inactive) |  | 21.5 µM (inactive) | 19.2 µM (inactive) | 31.6 µM (inactive) | 21.1 µM (inactive) | 11.6 µM (inactive) | 26.7 µM (inactive) | 8.09 µM (inactive) | 78.7 µM (inactive) | 13.6 µM (inactive) |
| COc1cc2[nH]c3c(c2cc1OC)CCN[C@@]31CC[C@@]2(CC3c4c(cc(OC)c(O)c42)CCN3C)C[C@@H]1OC (stereo partly specified) | 50.7 µM (inactive) | 20.2 µM (inactive) | > 81.3 µM (inactive) | 36.4 µM (inactive) | 28.6 µM (inactive) | 30.3 | 26.2 µM (inactive) | 42.6 µM (inactive) | 28.1 µM (inactive) | 23.4 µM (inactive) | 48.8 µM (inactive) | 29 µM (inactive) | 47.1 µM (inactive) | 21.2 µM (inactive) | 14.9 µM (inactive) | 16.5 µM (inactive) | 73.6 µM (inactive) | 12.5 µM (inactive) | 29.8 µM (inactive) | 22.9 µM (inactive) |
| O=C1C=C(c2c(O)ccc3ccccc23)c2cc(O)ccc2C1=O | 18.7 µM (inactive) | 6.14 µM (inactive) |  | 21.2 µM (inactive) | 16 µM (inactive) | 16.7 | 25.3 µM (inactive) | 16.1 µM (inactive) |  | 3.09 µM (inactive) |  | 11.1 µM (inactive) | 16.3 µM (inactive) | 18.5 µM (inactive) | 16.2 µM (inactive) | 15.1 µM (inactive) | 23.5 µM (inactive) | 6.59 µM (inactive) | 20.9 µM (inactive) | 4.43 µM (inactive) |
| O=C1OC(CC(=O)c2ccccc2Cl)C(Cl)=C1Cl (stereo unspecified) | > 100 µM (inactive) | > 100 µM (inactive) |  | > 100 µM (inactive) | > 100 µM (inactive) | > 100 | > 100 µM (inactive) | > 100 µM (inactive) |  | > 100 µM (inactive) |  | > 100 µM (inactive) | > 100 µM (inactive) | > 100 µM (inactive) | > 100 µM (inactive) | > 100 µM (inactive) | > 100 µM (inactive) | > 100 µM (inactive) | > 100 µM (inactive) | > 100 µM (inactive) |
| CS/C(=N\C(=S)Nc1ccccc1)Nc1ccccc1 | > 10 µM (inactive) | 0.743 µM (active) |  | > 10 µM (inactive) | > 10 µM (inactive) | 17.9 | 6.37 µM (inactive) | 25.6 µM (inactive) |  | 12.9 µM (inactive) |  | 26.3 µM (inactive) | 25.6 µM (inactive) | 21.5 µM (inactive) | > 10 µM (inactive) | 6.01 µM (inactive) | 27 µM (inactive) | 15.4 µM (inactive) | 14.2 µM (inactive) | 4.58 µM (inactive) |
| COc1ccc(NS(=O)(=O)c2ccc(/N=C3\C=C(Nc4ccc(S(=O)(=O)Nc5ccc(OC)nn5)cc4)C(=O)c4ccccc43)cc2)nn1 | 17.8 µM (inactive) | 26.5 µM (inactive) |  | 24.8 µM (inactive) | 17.5 µM (inactive) | 17 | 20.5 µM (inactive) | 16.7 µM (inactive) |  | 87.9 µM (inactive) |  | 18.3 µM (inactive) | 21.4 µM (inactive) | 17.1 µM (inactive) | 17.7 µM (inactive) | 20.4 µM (inactive) | 18.1 µM (inactive) | 83.6 µM (inactive) | 21.9 µM (inactive) | 18.6 µM (inactive) |
| CC[C@](O)(C(=O)O)c1cc2n(c(=O)c1CO)Cc1cc3ccccc3nc1-2 | 0.00366 µM (active) | 0.025 µM (active) | 0.0137 µM (active) | 0.0371 µM (active) | 0.0308 µM (active) | 0.0964 | 0.0461 µM (active) |  | 0.665 µM (active) | 0.0257 µM (active) | 0.0254 µM (active) | 0.214 µM (active) |  | 0.025 µM (active) | 0.0697 µM (active) | 0.0333 µM (active) | 0.0372 µM (active) | 0.01 µM (active) | 0.282 µM (active) | 0.025 µM (active) |
